Source: ChEMBL document CHEMBL5131409, “Synthesis and characterization of chiral 6-azaspiro[2.5]octanes as potent and selective antagonists of the M4 muscarinic acetylcholine receptor” (Bioorg Med Chem Lett, 2022)

Key:
[1] = Cmax in rat brain at 3 mg/kg, ip; format: ADME, organism-based; parameters: dose 3 mg/kg, route ip
[2] = Intrinsic clearance in human liver microsomes; format: ADME, Microsome; details: read-out: CLH
[3] = molecular target: Cytochrome P450 3A4 (Homo sapiens, UniProt P08684); assay: Inhibition of CYP3A4 in human liver microsomes using cocktail of isoform-specific probe substrate; format: ADME, Microsome
Sequence of Cytochrome P450 3A4 (P08684 whole entry, canonical isoform): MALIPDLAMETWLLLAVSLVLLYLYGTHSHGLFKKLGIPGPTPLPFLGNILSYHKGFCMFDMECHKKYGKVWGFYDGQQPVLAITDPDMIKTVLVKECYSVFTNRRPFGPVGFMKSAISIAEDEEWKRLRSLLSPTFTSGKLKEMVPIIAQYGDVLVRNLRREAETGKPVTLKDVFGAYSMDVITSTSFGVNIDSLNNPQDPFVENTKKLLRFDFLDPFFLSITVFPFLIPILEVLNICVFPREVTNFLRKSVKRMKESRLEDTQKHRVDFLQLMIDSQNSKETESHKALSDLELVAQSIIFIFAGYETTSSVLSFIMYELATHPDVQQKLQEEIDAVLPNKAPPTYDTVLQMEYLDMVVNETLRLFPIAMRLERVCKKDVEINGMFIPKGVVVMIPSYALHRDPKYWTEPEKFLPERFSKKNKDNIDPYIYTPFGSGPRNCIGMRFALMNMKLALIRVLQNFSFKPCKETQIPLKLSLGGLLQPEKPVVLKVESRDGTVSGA

[4] = AUC (0.25 to last) in rat brain at 3 mg/kg, ip; format: ADME, organism-based; details: in vivo
[5] = molecular target: T1, Muscarinic acetylcholine receptor M4 (Homo sapiens) (UniProt P08173); assay: Antagonist activity at human muscarinic acetylcholine M4 receptor expressed in CHO cells co-expressing Gqi5 assessed as minimal acetylcholine response by calcium mobilization assay relative to control; format: functional, cell-based; parameters: scale not given: the % may be the effect or the level left; details: filed as antagonist
T1 sequence (whole entry): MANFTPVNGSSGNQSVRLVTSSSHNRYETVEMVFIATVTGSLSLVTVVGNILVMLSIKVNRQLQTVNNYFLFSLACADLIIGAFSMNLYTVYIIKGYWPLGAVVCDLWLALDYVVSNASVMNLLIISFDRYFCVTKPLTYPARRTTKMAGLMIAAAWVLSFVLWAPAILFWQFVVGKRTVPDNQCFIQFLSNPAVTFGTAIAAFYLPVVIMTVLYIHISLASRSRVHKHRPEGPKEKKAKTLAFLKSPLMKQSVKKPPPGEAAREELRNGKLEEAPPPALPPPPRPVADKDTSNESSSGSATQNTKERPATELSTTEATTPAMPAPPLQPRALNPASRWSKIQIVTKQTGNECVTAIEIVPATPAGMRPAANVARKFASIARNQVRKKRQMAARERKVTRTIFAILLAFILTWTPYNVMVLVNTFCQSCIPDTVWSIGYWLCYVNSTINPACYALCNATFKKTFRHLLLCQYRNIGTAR

[6] = AUC (0.25 to last) in rat plasma at 3 mg/kg, ip; format: ADME, organism-based; parameters: dose 3 mg/kg, route ip
[7] = Tmax in rat brain at 3 mg/kg, ip; format: ADME, organism-based
[8] = Plasma clearance in rat at 3 mg/kg, iv; format: ADME, organism-based
[9] = Cmax in mouse plasma at 3 mg/kg, ip; format: ADME, organism-based; parameters: dose 3 mg/kg, route ip
[10] = AUC (0.25 to last) in mouse plasma at 3 mg/kg, ip; format: ADME, organism-based; parameters: dose 3 mg/kg, route ip
[11] = Volume of distribution in rat at 3 mg/kg, iv; format: ADME, organism-based; details: in vivo
[12] = AUC (0 to last) in rat at 3 mg/kg, iv; format: ADME, organism-based; parameters: time 0 - last, dose 3 mg/kg, route iv; details: in vivo
[13] = molecular target: T2, Muscarinic acetylcholine receptor M5 (Rattus norvegicus, UniProt P08911); assay: Inhibition of rat muscarinic acetylcholine M5 receptor expressed in CHO cells co-expressing Gqi5 preincubated with compound followed by acetylcholine addition at EC80 concentration by calcium mobilization assay; format: functional, cell-based
T2 sequence (P08911 whole entry): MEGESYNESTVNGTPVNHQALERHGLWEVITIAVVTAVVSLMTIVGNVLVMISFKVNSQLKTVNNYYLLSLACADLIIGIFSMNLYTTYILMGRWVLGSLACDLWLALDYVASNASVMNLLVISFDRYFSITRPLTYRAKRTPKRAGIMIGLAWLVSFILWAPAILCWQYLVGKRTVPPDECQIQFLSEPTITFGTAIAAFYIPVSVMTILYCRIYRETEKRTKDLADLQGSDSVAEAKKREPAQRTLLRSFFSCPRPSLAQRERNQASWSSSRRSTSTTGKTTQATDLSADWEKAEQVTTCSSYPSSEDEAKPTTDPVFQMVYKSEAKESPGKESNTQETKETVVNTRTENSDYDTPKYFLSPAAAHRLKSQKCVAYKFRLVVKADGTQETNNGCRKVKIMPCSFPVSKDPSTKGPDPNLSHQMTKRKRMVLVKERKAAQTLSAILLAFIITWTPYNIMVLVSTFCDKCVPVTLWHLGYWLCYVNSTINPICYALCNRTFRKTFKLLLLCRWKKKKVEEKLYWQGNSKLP

[14] = Ratio of AUC (0.25 to last) in mouse brain to plasma at 3 mg/kg, ip; format: ADME, organism-based; details: read-out: Ratio AUC
[15] = molecular target: Cytochrome P450 2C9 (Homo sapiens, UniProt P11712); assay: Inhibition of CYP2C9 in human liver microsomes using cocktail of isoform-specific probe substrate; format: ADME, Microsome
Sequence of Cytochrome P450 2C9 (P11712 whole entry, canonical isoform): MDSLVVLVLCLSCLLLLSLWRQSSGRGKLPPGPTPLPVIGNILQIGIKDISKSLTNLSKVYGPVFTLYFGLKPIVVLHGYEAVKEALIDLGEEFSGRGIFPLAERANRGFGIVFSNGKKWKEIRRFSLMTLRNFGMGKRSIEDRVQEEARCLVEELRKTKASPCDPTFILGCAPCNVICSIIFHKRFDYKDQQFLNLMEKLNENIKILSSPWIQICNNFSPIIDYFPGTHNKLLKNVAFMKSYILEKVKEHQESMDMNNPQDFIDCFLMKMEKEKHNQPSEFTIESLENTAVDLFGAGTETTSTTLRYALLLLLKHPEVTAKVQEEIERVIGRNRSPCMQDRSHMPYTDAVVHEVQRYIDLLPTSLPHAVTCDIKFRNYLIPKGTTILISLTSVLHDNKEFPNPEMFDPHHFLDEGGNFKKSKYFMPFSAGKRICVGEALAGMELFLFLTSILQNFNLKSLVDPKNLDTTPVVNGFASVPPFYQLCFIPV

[16] = molecular target: Cytochrome P450 2D6 (Homo sapiens, UniProt P10635); assay: Inhibition of CYP2D6 in human liver microsomes using cocktail of isoform-specific probe substrate; format: ADME, Microsome
Sequence of Cytochrome P450 2D6 (P10635 whole entry, canonical isoform): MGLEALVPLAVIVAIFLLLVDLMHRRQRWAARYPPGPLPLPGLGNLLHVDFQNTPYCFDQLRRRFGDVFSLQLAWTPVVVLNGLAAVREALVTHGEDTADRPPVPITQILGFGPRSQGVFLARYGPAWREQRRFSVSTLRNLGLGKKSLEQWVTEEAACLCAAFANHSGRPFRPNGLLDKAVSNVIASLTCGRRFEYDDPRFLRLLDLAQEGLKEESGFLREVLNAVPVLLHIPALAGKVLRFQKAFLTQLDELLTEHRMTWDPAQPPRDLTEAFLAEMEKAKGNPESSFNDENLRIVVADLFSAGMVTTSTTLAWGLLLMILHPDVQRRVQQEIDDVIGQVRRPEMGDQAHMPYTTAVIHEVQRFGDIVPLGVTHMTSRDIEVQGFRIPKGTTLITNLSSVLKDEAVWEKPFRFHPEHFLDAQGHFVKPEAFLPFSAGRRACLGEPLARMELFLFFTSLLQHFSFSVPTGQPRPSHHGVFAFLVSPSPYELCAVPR

[17] = molecular target: T3, Cytochrome P450 1A2 (Homo sapiens, UniProt P05177); assay: Inhibition of CYP1A2 in human liver microsomes using cocktail of isoform-specific probe substrate; format: ADME, Microsome
T3 sequence (P05177 whole entry): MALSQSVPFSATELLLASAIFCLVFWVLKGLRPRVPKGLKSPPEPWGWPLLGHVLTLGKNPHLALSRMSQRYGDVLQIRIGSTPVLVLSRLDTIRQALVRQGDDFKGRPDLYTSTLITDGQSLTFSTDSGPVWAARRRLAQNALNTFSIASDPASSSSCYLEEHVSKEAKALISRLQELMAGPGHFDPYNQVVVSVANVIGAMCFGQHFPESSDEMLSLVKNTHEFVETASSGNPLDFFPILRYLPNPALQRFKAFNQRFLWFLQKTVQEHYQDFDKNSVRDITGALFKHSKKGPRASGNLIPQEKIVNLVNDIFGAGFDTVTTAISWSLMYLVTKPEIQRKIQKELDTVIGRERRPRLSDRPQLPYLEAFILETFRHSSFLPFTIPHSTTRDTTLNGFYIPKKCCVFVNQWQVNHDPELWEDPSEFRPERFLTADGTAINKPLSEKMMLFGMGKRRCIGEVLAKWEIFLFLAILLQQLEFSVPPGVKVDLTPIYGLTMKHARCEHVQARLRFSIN

[18] = Intrinsic clearance in rat liver microsomes; format: ADME, Microsome; details: read-out: CLH
[19] = Cmax in mouse brain at 3 mg/kg, ip; format: ADME, organism-based; parameters: dose 3 mg/kg, route ip
[20] = Ratio of AUC (0.25 to last) in rat brain to plasma at 3 mg/kg, ip; format: ADME, organism-based; details: read-out: Ratio AUC
[21] = molecular target: T4, Muscarinic acetylcholine receptor M2 (Homo sapiens, UniProt P08172); assay: Inhibition of human muscarinic acetylcholine M2 receptor expressed in CHO cells co-expressing Gqi5 in the presence of acetylcholine at EC80 concentration by calcium mobilization assay; format: functional, cell-based
T4 sequence (P08172 whole entry): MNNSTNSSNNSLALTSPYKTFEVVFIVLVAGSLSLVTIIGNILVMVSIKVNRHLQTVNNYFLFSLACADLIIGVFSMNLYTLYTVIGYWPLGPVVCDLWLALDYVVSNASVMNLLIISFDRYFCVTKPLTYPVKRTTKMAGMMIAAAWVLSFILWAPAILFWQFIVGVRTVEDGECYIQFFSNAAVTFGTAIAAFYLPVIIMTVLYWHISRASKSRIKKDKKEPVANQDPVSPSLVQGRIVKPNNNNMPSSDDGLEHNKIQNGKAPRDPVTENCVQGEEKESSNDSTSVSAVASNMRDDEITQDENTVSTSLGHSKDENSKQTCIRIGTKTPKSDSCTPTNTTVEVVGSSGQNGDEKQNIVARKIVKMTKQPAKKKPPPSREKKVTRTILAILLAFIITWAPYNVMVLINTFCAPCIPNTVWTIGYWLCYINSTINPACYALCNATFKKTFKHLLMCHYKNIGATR

In the case of `CC(=O)Nc1ccc(-c2ccc(NC[C@@H]3CC34CCN(CC3CCOCC3)CC4)nn2)cc1`, the Cmax [1] is reported as 477 ng/g, the predicted hepatic clearance [2] is reported as 16 mL/min/kg and the IC50 [3] is reported as > 30 µM. For the same compound, the AUClast [4] was 2180 ng·h/g, the Activity [5] was 3.2% and the AUC [6] was 9550 ng·h/mL. It also gave a Tmax [7] of 2 h, a clearance [8] of 257 mL/min/kg and a Cmax [9] of 6870 ng/mL. It also gave an AUC [10] of 10500 ng·h/mL, a Vd [11] of 147 L/kg and an AUC(0-t) [12] of 181 ng·h/mL. For the same compound, the IC50 [13] was > 10 µM, the Kp [14] was 0.38 and the IC50 [15] was > 30 µM. The IC50 [16] was > 30 µM, the IC50 [17] was > 30 µM and the CLint scaled [18] was 6.2 mL/min/kg. The Cmax [19] was 738 ng/g, the Kp [20] was 0.23 and the IC50 [21] was > 10 µM.
